The results in this text go back to US8012993B2, “Stable S-nitrosothiols, method of synthesis and use” (Lacer, S.A., priority 2006, dated 2011).

Molecules are shown by their SMILES.

For one series, the system named is systemic blood pressure. The series is described as follows: Effect of nitrosothiols on systemic blood pressure. It counts as in vivo, male Wistar rats. The note with it: for Mean arterial pressure, Basal: before initiation of the treatment. On the procedure:
Fasted male Wistar rats (300-320 g; Janvier, Le Genest St. Isle, France) were anesthetized with sodium pentobarbitone (60 mg/kg i.p.). The effect of treatments on systemic blood pressure was tested. Products dissolved in saline solution and were infused intravenously for 30 minutes at 0.5 ml/h. […] Basal blood pressure was measured before initiation of the treatment and was recorded throughout the treatment period using a pressure transducer connected to the carotid artery. The change in blood pressure was expressed as a % of change vs. basal values.

The test system of the next series is arterial thrombosis. Briefly: Rat arterial thrombosis model (ferric chloride, carotid artery). In kind it is in vivo, male Wistar rats. The following applies: i.v. infusion for 30 minutes. How it is done: The activity of the products was assessed in experimental animals in accordance with the European Community Standards on the Care and Use of Laboratory Animals and approved by the Animal Care and Use Committee of local authorities. Two experimental models to test antithrombotic activity in rats were used: Arterio-Venous Shunt and Ferric chloride arterial thrombosis model. Additionally, the effect of the products on the systemic blood pressure was investigated. Fasted male Wistar rats (300-320 g; Janvier, Le Genest St. Isle, France) were anesthetized with sodium pentobarbital (60 mg/kg i.p.) and thermoregulated by use of blankets (Biosis homeothermic blanket control unit; Biosis, Spain). A segment (approximately 1-cm long) of the left carotid artery was exposed and fitted at the distal end with an appropriately sized Doppler flow probe. Thrombosis was induced by applying a 70% ferric chloride solution embedded patch onto the artery. Blood flow velocity was measured using a Doppler flowmeter (Transonic Systems, San Diego, Calif.) and data recorded using a system for acquisition of data (Acqk). Blood flow was recorded for 60 min post-lesion. When the flow declined to zero, the time in minutes to thrombus formation was noted. The protocol followed was originally described by Feuerstein G Z, et al Artherioscler. Thromb. Vasc. Biol. 1999, 19: 2554-2562 and modified by Kurz K D, et al Thromb. Res. 1990, 60:269-280. The number of animals presenting no occlusion 30 min post-lesion were also noted. Products were dissolved in saline and were given as an i.v. infusion for 30 minutes. ED50 for each product was calculated and results are shown in Table 1 • Anti-thrombotic effect of compounds compared with reference compound in rat arterial thrombosis model after i.v. administration for 30 minutes.

Series [1] concerns thrombus in arterio-venous shunt. The series is described as follows: Rat arterio-venous shunt silk thread model. In kind it is in vivo, male Wistar rats. The note with it: rat AV shunt, perfusion 60 minutes. On the procedure: The activity of the products was assessed in experimental animals in accordance with the European Community Standards on the Care and Use of Laboratory Animals and approved by the Animal Care and Use Committee of local authorities. Two experimental models to test antithrombotic activity in rats were used: Arterio-Venous Shunt and Ferric chloride arterial thrombosis model. Additionally, the effect of the products on the systemic blood pressure was investigated. Fasted male Wistar rats (300-320 g; Janvier, Le Genest St. Isle, France) were anesthetized with sodium pentobarbitone (60 mg/kg i.p.). An arterio-venous (AV) shunt was prepared according to the technique of Umetsu and Sanai (1978). Two 12 cm-long polyethylene tubes (0.85- and 1.27-mm i.d. and o.d., respectively) linked to a central part (6 cm-long; 1.14-mm i.d.) containing a 5-cm cotton thread and filled with […]) saline solution were placed between the right carotid artery and the left jugular vein. All products were given i.v through the jugular vein for 60 minutes. Shunt was placed 45 minutes after the initiation of the perfusion with the testing substances and removed at the end of the perfusion i.e. after 15 min of blood circulation. Cotton thread supporting the thrombus was extracted.

A further series relates to intraocular pressure. Briefly: Alfa-chymotrypsin-induced glaucoma, intraocular pressure. In kind it is in vivo. The following applies: glaucoma rabbits; for intraocular pressure, 0 hr / intraocular pressure, 1 hr / intraocular pressure, 2 hr: 3 drops instillation. How it is done:
The method used was that described by Gabriele Campana, Claudio Bucolo, Giovanna Murari and Santi Spampinato in Pharmacol. Exp Therap Vol. 303, Issue 3, 1086-1094, December 2002
Animals were injected with intra muscular injection of dexamethasone at the dose rate of 10 mg/Kg body weight, to avoid immediate inflammation. Animals were anesthetized with ketamine (50 mg/kg IV) in combination with Dizepam.
Xylocalne (4%) was used for local anesthesia topically. A cannula attached to reservoir was inserted into the anterior chamber with the help of a 30 gauge needle to provide a hydrostatic pressure of 25 mmHg during injection of alpha-chymotrypsin. Then a second appropriately shaped 30 gauge needle was introduced near the pupil. Freshly prepared 150 units of alpha chymotrypsin prepared in 0.1 ml of sterile saline was irrigated through the cannula into the posterior chamber. Care was taken to prevent the contact of alpha chymotrypsin with corneal stroma. Both cannulas were carefully removed without significant loss of aqueous humor. Immediately after surgery the eye treated with Sofracort (Corticosteroid) to reduce the chances of fungal or microbial infection.
All the animals were kept under observation for 5 days and after these five days the intraocular pressure (IOP) was measured daily with a Schiontz type indentation tonometer using 5.5 gm weights and by compilation of readings the maximum period required to achieve a stable increase in IOP was determined. […] IOP was measured after 15 days for 3 consecutive days, every morning (at same time) to assure stable IOP.
All the animals were closely observed for the development of glaucoma. Thirty animals showing the symptoms of glaucoma and with the intra ocular pressure more than 30 mmHg were selected for the present investigation.
Compound (R,S)-4-(Acetylamino-ethoxycarbonyl-methyl)-1-methyl-4-S-nitroso-mercapto-piperidinium chloride (example 1g) was administered to a group of rabbits at a concentration of 0.05% by weight [0.05 g in 100 mL of saline serum] by 3 drops instillation. For comparative data, the compound Timolol (Timoftol®) widely used for the treatment of glaucoma, was also administered to another group of rabbits at a concentration of 0.5% by weight.
The intraocular pressure measurements are included in the table 2 in mm Hg taken at 0, 1 and 2 h after 3 drops instillation.

Series [2] in a line: Stability study: storage in closed borosilicate glass vial, HPLC analysis. It counts as physicochemical.
The mark [3] stands for this setting: anesthetized rat, i.v. infusion 30 min, dose 100 times the antithrombotic ED50.
Setting [4] is: change vs. basal after 30 min i.v. infusion, dose 100 times the antithrombotic ED50.
Setting [5] is: at 4° C., closed glass vial, no longer stable when it loses more than 5% of initial purity (HPLC).
The mark [6] stands for this setting: at 25° C., closed glass vial, no longer stable when it loses more than 5% of initial purity (HPLC).

As to `CCOC(=O)C(NC(C)=O)C1(SN=O)CCN(C)CC1.Cl` (racemic) [Example 1g, (R,S)-4-(Acetylamino-ethoxycarbonyl-methyl)-1-methyl-4-S-nitrosomercapto-piperidinium chloride], in the series with systemic blood pressure (anesthetized rat), the “Mean arterial pressure, Basal” value is 115.7 ± 8.3 mm Hg. The “Mean arterial pressure, After 30 min infusion” value with systemic blood pressure (setting [3]) came out at 113.6 ± 9.2 mm Hg. Further, in the series with systemic blood pressure (setting [4]), the “Mean arterial pressure, Change” value is listed as −1.8%. The “ED50 (anti-thrombotic effect)” value in the series with arterial thrombosis is 9.1 μg/kg, i.v. In series [1] (dose 2.0 μg/kg i.v.), the Antithrombotic protection came out at 54%. In the series with intraocular pressure (0.05% by weight in saline), the “intraocular pressure, 0 hr” value came out at 34.33 ± 0.68 mm Hg; the “intraocular pressure, 1 hr” value was found to be 24.72 ± 0.47 mm Hg; the “intraocular pressure, 2 hr” value amounted to 23.86 ± 0.32 mm Hg. In addition, the “effect on intraocular pressure (in words)” value in the series with intraocular pressure (0.05%, 10-fold lower concentration than Timolol) is “significantly reduces the intraocular pressure”. Besides, the “time the compound was stable” value in series [2] (setting [5]) is recorded as “more than 10 months”. Moreover, in series [2] (setting [6]), the “time the compound was stable” value turned out to be 2.5 months.
Consider `CCOC(=O)[C@@H](NS(=O)(=O)c1ccccc1)C1(SN=O)CCN(C)CC1.Cl` (racemic) [Example 7 (hydrochloride salt), (R,S)-4-(Benzenesulfonylamino-ethoxycarbonyl-methyl)-1-methyl-4-S-nitrosomercapto-piperidinium chloride], for which, in the series on systemic blood pressure (anesthetized rat), the “Mean arterial pressure, Basal” value is on record as 117.9 ± 10.2 mm Hg. For the same compound, the “Mean arterial pressure, Change” value with systemic blood pressure (rat, in vivo) is recorded as “+0.8%”. The “Mean arterial pressure, After 30 min infusion” value in the series on systemic blood pressure (rat, in vivo, iv) came out at 118.8 ± 11.1 mm Hg. Moreover, the “ED50 (anti-thrombotic effect)” value with arterial thrombosis is on record as 56.4 μg/kg, i.v. Moreover, the Antithrombotic protection in series [1] (dose 10.4 μg/kg i.v.) is 60%. Besides, the entries for the “time the compound was stable” value in series [2] (setting [5]) and in series [2] (setting [6]) were above 6 months and “at least 4 months”, respectively.
`N[C@@H](CCC(=O)N[C@@H](CSN=O)C(=O)NCC(=O)O)C(=O)O` [GSNO, S-nitrosoglutathione, reference compound]: the “Mean arterial pressure, Basal” value in the series on systemic blood pressure (anesthetized rat) was determined as 112.2 ± 6.2 mm Hg. In addition, the “Mean arterial pressure, After 30 min infusion” value in the series with systemic blood pressure (setting [3]) was determined as 98.8 ± 4.1 mm Hg. In addition, the “Mean arterial pressure, Change” value in the series on systemic blood pressure (setting [4]) is on record as −12.0%. Also, the “ED50 (anti-thrombotic effect)” value with arterial thrombosis is 18.1 μg/kg, i.v. In series [1] (dose 4.0 μg/kg i.v.), this compound gave an Antithrombotic protection of 58%. In addition, the “time the compound was stable” value in series [2] (at 25° C., prior art S-nitrothiol compounds, loss of more than 5% of initial purity) is on record as 1 days.
Consider `CC(C)(C)NC[C@H](O)COc1nsnc1N1CCOCC1` [Timolol, reference compound], for which, in the series with intraocular pressure (0.5% by weight), the “intraocular pressure, 0 hr” value is listed as 34.45 ± 0.58 mm Hg; the “intraocular pressure, 1 hr” value was determined as 24.77 ± 0.26 mm Hg; the “intraocular pressure, 2 hr” value is on record as 24.54 ± 0.26 mm Hg.
`CC(=O)NC(C(=O)O)C1(SN=O)CCN(C)CC1` (stereo not drawn) [example 2 of EP 1157987, N-acetyl-2-amino-2[4-(4-S-nitrosomercapto-1-methylpiperidin)]acetic acid, reference compound]: the “Mean arterial pressure, After 30 min infusion” value with systemic blood pressure (setting [3]) turned out to be 95.1 ± 2.4 mm Hg. Besides, the “ED50 (anti-thrombotic effect)” value with arterial thrombosis is given as 4.1 μg/kg, i.v. In series [1] (dose 1.7 μg/kg i.v.), this compound gave an Antithrombotic protection of 61%.
